{"source": "patent US10004701B2", "about": "“Methods and compositions for treating infection” (UNIVERSITY OF ROCHESTER, priority 2012, dated 2018)", "assay_in_all_cases": "AK assay 384-well format, Prestwick library screening", "key": {"E. faecium": {"system": "E. faecium", "type": "cell-based, Enterococcus faecium", "conditions": "Enterococcus faecium, 3 h"}, "[1]": {"system": "S. aureus strain USA300-0114", "type": "cell-based, Staphylococcus aureus", "conditions": "Staphylococcus aureus, USA300, 3 h"}, "K. pneumoniae": {"system": "K. pneumoniae", "type": "cell-based, Klebsiella pneumoniae", "conditions": "Klebsiella pneumoniae, 3 h"}, "[2]": {"system": "A. baumannii strain 98-37-09", "type": "cell-based, Acinetobacter baumannii", "conditions": "Acinetobacter baumannii, 983709, 3 h"}, "P. aeruginosa": {"system": "P. aeruginosa", "type": "cell-based, Pseudomonas aeruginosa", "conditions": "Pseudomonas aeruginosa, 3 h"}, "E. cloacae": {"system": "E. cloacae", "type": "cell-based, Enterobacter cloacae", "conditions": "Enterobacter cloacae, 3 h"}, "E. coli": {"system": "E. coli", "type": "cell-based, Escherichia coli", "conditions": "Escherichia coli, 3 h"}}, "note": "Like-named read-outs stand apart in the source and are kept apart here.", "data": [{"smiles": "Cc1c(NC(=O)c2cccnc2)c(=O)n(-c2ccccc2)n1C", "note": "[Nifenazone]", "values": [{"measurement": "fold induction at 50 µM", "setting": "E. faecium; planktonic E. faecium, 50 μM final drug concentration, 384-well, cutoff for positive-scoring molecules 3-fold increase, read-out: AK-based Prestwick Library Screening Results: E. faecium (increase in extracellular AK activity)", "result": 1}, {"measurement": "fold induction at 50 µM", "setting": "[1]; planktonic S. aureus, 50 μM final drug concentration, 384-well, cutoff for positive-scoring molecules 3-fold increase, read-out: AK-based Prestwick Library Screening Results: S. aureus (increase in extracellular AK activity)", "result": 1.3}, {"measurement": "fold induction at 50 µM", "setting": "K. pneumoniae; planktonic K. pneumoniae, 50 μM final drug concentration, 384-well, cutoff for positive-scoring molecules 3-fold increase, read-out: AK-based Prestwick Library Screening Results: K. pneumoniae (increase in extracellular AK activity)", "result": 1}, {"measurement": "fold induction at 50 µM", "setting": "[2]; planktonic A. baumannii, 50 μM final drug concentration, 384-well, cutoff for positive-scoring molecules 3-fold increase, read-out: AK-based Prestwick Library Screening Results: A. baumannii (increase in extracellular AK activity)", "result": 1.6}, {"measurement": "fold induction at 50 µM", "setting": "P. aeruginosa; planktonic P. aeruginosa, 50 μM final drug concentration, 384-well, cutoff for positive-scoring molecules 3-fold increase, read-out: AK-based Prestwick Library Screening Results: P. aeruginosa (increase in extracellular AK activity)", "result": 1.2}, {"measurement": "fold induction at 50 µM", "setting": "E. cloacae; planktonic E. cloacae, 50 μM final drug concentration, 384-well, cutoff for positive-scoring molecules 3-fold increase, read-out: AK-based Prestwick Library Screening Results: E. cloacae (increase in extracellular AK activity)", "result": 1.2}, {"measurement": "fold induction at 50 µM", "setting": "E. coli; planktonic E. coli, 50 μM final drug concentration, 384-well, cutoff for positive-scoring molecules 3-fold increase, read-out: AK-based Prestwick Library Screening Results: E. coli (increase in extracellular AK activity)", "result": 1.2}]}, {"smiles": "O=C(O)c1cccnc1Nc1cccc(C(F)(F)F)c1", "note": "[Niflumic acid]", "values": [{"measurement": "fold induction at 50 µM", "setting": "E. faecium; 50 μM final drug concentration, 384-well format, cutoff for positive-scoring molecules 3-fold increase, read-out: AK-based Prestwick Library Screening Results, E. faecium (increase in extracellular AK activity)", "result": 0.9}, {"measurement": "fold induction at 50 µM", "setting": "[1]; 50 μM final drug concentration, 384-well format, cutoff for positive-scoring molecules 3-fold increase, read-out: AK-based Prestwick Library Screening Results, S. aureus (increase in extracellular AK activity)", "result": 0.7}, {"measurement": "fold induction at 50 µM", "setting": "K. pneumoniae; 50 μM final drug concentration, 384-well format, cutoff for positive-scoring molecules 3-fold increase, read-out: AK-based Prestwick Library Screening Results, K. pneumoniae (increase in extracellular AK activity)", "result": 0.6}, {"measurement": "fold induction at 50 µM", "setting": "[2]; 50 μM final drug concentration, 384-well format, cutoff for positive-scoring molecules 3-fold increase, read-out: AK-based Prestwick Library Screening Results, A. baumannii (increase in extracellular AK activity)", "result": 0.7}, {"measurement": "fold induction at 50 µM", "setting": "P. aeruginosa; 50 μM final drug concentration, 384-well format, cutoff for positive-scoring molecules 3-fold increase, read-out: AK-based Prestwick Library Screening Results, P. aeruginosa (increase in extracellular AK activity)", "result": 0.7}, {"measurement": "fold induction at 50 µM", "setting": "E. cloacae; 50 μM final drug concentration, 384-well format, cutoff for positive-scoring molecules 3-fold increase, read-out: AK-based Prestwick Library Screening Results, E. cloacae (increase in extracellular AK activity)", "result": 0.8}, {"measurement": "fold induction at 50 µM", "setting": "E. coli; 50 μM final drug concentration, 384-well format, cutoff for positive-scoring molecules 3-fold increase, read-out: AK-based Prestwick Library Screening Results, E. coli (increase in extracellular AK activity)", "result": 0.6}]}, {"smiles": "O=C(N/N=C/c1ccc([N+](=O)[O-])o1)c1ccc(O)cc1", "note": "[Nifuroxazide]", "values": [{"measurement": "fold induction at 50 µM", "setting": "E. faecium; 50 μM final drug concentration, planktonic, cutoff for positive 3-fold increase, read-out: AK-based Prestwick Library Screening Results, E. faecium (fold increase in extracellular AK activity)", "result": 1}, {"measurement": "fold induction at 50 µM", "setting": "[1]; 50 μM final drug concentration, planktonic, cutoff for positive 3-fold increase, read-out: AK-based Prestwick Library Screening Results, S. aureus (fold increase in extracellular AK activity)", "result": 0.7}, {"measurement": "fold induction at 50 µM", "setting": "K. pneumoniae; 50 μM final drug concentration, planktonic, cutoff for positive 3-fold increase, read-out: AK-based Prestwick Library Screening Results, K. pneumoniae (fold increase in extracellular AK activity)", "result": 1.8}, {"measurement": "fold induction at 50 µM", "setting": "[2]; 50 μM final drug concentration, planktonic, cutoff for positive 3-fold increase, read-out: AK-based Prestwick Library Screening Results, A. baumannii (fold increase in extracellular AK activity)", "result": 1.1}, {"measurement": "fold induction at 50 µM", "setting": "P. aeruginosa; 50 μM final drug concentration, planktonic, cutoff for positive 3-fold increase, read-out: AK-based Prestwick Library Screening Results, P. aeruginosa (fold increase in extracellular AK activity)", "result": 1.2}, {"measurement": "fold induction at 50 µM", "setting": "E. cloacae; 50 μM final drug concentration, planktonic, cutoff for positive 3-fold increase, read-out: AK-based Prestwick Library Screening Results, E. cloacae (fold increase in extracellular AK activity)", "result": 1.5}, {"measurement": "fold induction at 50 µM", "setting": "E. coli; 50 μM final drug concentration, planktonic, cutoff for positive 3-fold increase, read-out: AK-based Prestwick Library Screening Results, E. coli (fold increase in extracellular AK activity)", "result": 1.2}]}, {"smiles": "CC1CS(=O)(=O)CCN1/N=C/c1ccc([N+](=O)[O-])o1", "note": "(stereo not drawn) [Nifurtimox]", "values": [{"measurement": "fold induction at 50 µM", "setting": "E. faecium; planktonic E. faecium, 50 μM final drug concentration, positive cutoff 3-fold increase, read-out: AK-based Prestwick library screening result, E. faecium (fold increase in extracellular AK activity)", "result": 1}, {"measurement": "fold induction at 50 µM", "setting": "[1]; planktonic S. aureus, 50 μM final drug concentration, positive cutoff 3-fold increase, read-out: AK-based Prestwick library screening result, S. aureus (fold increase in extracellular AK activity)", "result": 0.8}, {"measurement": "fold induction at 50 µM", "setting": "K. pneumoniae; planktonic K. pneumoniae, 50 μM final drug concentration, positive cutoff 3-fold increase, read-out: AK-based Prestwick library screening result, K. pneumoniae (fold increase in extracellular AK activity)", "result": 1.2}, {"measurement": "fold induction at 50 µM", "setting": "[2]; planktonic A. baumannii, 50 μM final drug concentration, positive cutoff 3-fold increase, read-out: AK-based Prestwick library screening result, A. baumannii (fold increase in extracellular AK activity)", "result": 1.5}, {"measurement": "fold induction at 50 µM", "setting": "P. aeruginosa; planktonic P. aeruginosa, 50 μM final drug concentration, positive cutoff 3-fold increase, read-out: AK-based Prestwick library screening result, P. aeruginosa (fold increase in extracellular AK activity)", "result": 1.1}, {"measurement": "fold induction at 50 µM", "setting": "E. cloacae; planktonic E. cloacae, 50 μM final drug concentration, positive cutoff 3-fold increase, read-out: AK-based Prestwick library screening result, E. cloacae (fold increase in extracellular AK activity)", "result": 1.3}, {"measurement": "fold induction at 50 µM", "setting": "E. coli; planktonic E. coli, 50 μM final drug concentration, positive cutoff 3-fold increase, read-out: AK-based Prestwick library screening result, E. coli (fold increase in extracellular AK activity)", "result": 1.1}]}, {"smiles": "CC1(C)NC(=O)N(c2ccc([N+](=O)[O-])c(C(F)(F)F)c2)C1=O", "note": "[Nilutamide]", "values": [{"measurement": "fold induction at 50 µM", "setting": "E. faecium; 50 μM final drug concentration, […], read-out: AK-based Prestwick Library Screening Results, E. faecium (fold increase in extracellular AK activity)", "result": 1}, {"measurement": "fold induction at 50 µM", "setting": "[1]; 50 μM final drug concentration, […], read-out: AK-based Prestwick Library Screening Results, S. aureus (fold increase in extracellular AK activity)", "result": 1.3}, {"measurement": "fold induction at 50 µM", "setting": "K. pneumoniae; 50 μM final drug concentration, […], read-out: AK-based Prestwick Library Screening Results, K. pneumoniae (fold increase in extracellular AK activity)", "result": 1}, {"measurement": "fold induction at 50 µM", "setting": "[2]; 50 μM final drug concentration, […], read-out: AK-based Prestwick Library Screening Results, A. baumannii (fold increase in extracellular AK activity)", "result": 1.2}, {"measurement": "fold induction at 50 µM", "setting": "P. aeruginosa; 50 μM final drug concentration, […], read-out: AK-based Prestwick Library Screening Results, P. aeruginosa (fold increase in extracellular AK activity)", "result": 1.2}, {"measurement": "fold induction at 50 µM", "setting": "E. cloacae; 50 μM final drug concentration, […], read-out: AK-based Prestwick Library Screening Results, E. cloacae (fold increase in extracellular AK activity)", "result": 1.4}, {"measurement": "fold induction at 50 µM", "setting": "E. coli; 50 μM final drug concentration, […], read-out: AK-based Prestwick Library Screening Results, E. coli (fold increase in extracellular AK activity)", "result": 1.2}]}, {"smiles": "CS(=O)(=O)Nc1ccc([N+](=O)[O-])cc1Oc1ccccc1", "note": "[Nimesulide]", "values": [{"measurement": "fold induction at 50 µM", "setting": "E. faecium; read-out: AK-based Prestwick Library Screening Results, E. faecium (increase in extracellular AK activity)", "result": 0.8}, {"measurement": "fold induction at 50 µM", "setting": "[1]; read-out: AK-based Prestwick Library Screening Results, S. aureus (increase in extracellular AK activity)", "result": 0.7}, {"measurement": "fold induction at 50 µM", "setting": "K. pneumoniae; read-out: AK-based Prestwick Library Screening Results, K. pneumoniae (increase in extracellular AK activity)", "result": 0.7}, {"measurement": "fold induction at 50 µM", "setting": "[2]; read-out: AK-based Prestwick Library Screening Results, A. baumannii (increase in extracellular AK activity)", "result": 0.9}, {"measurement": "fold induction at 50 µM", "setting": "P. aeruginosa; read-out: AK-based Prestwick Library Screening Results, P. aeruginosa (increase in extracellular AK activity)", "result": 0.9}, {"measurement": "fold induction at 50 µM", "setting": "E. cloacae; read-out: AK-based Prestwick Library Screening Results, E. cloacae (increase in extracellular AK activity)", "result": 1.4}, {"measurement": "fold induction at 50 µM", "setting": "E. coli; read-out: AK-based Prestwick Library Screening Results, E. coli (increase in extracellular AK activity)", "result": 0.9}]}]}
